# Reference: patent publication US10723998B2, “Application of ethyl p-methoxycinnamate and derivatives thereof in maintaining self-renewal and pluripotency of stem cells” (NORTHEAST NORMAL UNIVERSITY, priority 2015, dated 2020)
# Tests used:
# Oct4 promoter = Oct4 promoter luciferase reporter assay (pGL3-Oct4P-Basic) in P19 cells; type: cell-based, mouse; conditions: 5 μg/mL, 12-24 h, DMSO control, FIG. 1
# From the text: According to a method described in literature (Yang H M, Do H J, Oh J H, et al. Characterization of putative cis-regulatory elements that control the transcriptional activity of the human Oct4 promoter[J]. Journal of cellular biochemistry, 2005, 96(4):821-830), the promoter of Oct4 gene was picked and cloned into pGL3-Basic, so as to construct pGL3-Oct4P-Basic reporter plasmid. One day before transfection, mouse teratoma cells P19 were inoculated into a 6-well cell culture plate at a density of 2×10^5 cells/well to make the cells grown to about 80% before transfection. […]
# Luciferase Reporter Assay System and FluoStar Optima were used to assay the luciferase activity of the transfected cell lysis solution. To 45 μL of the cell lysis solution was added 5 μL of Assay Cocktail reagent, after they were mixed well, 100 μL of Luciferin reaction solution was added, and fluorescence counting in 2 s was measured using FluoStar Optima instrument, which reflected the activity level of the studied plasmid reporter genes expressing firefly luciferase. […] An absorption value at 450 nm was assayed using a microplate reader, which reflected the activity level of internal reference plasmid pCMV-β-gal expressing β-galactosidase. […] The relative luciferase activity of different samples was calculated through the following equation: […]
# Oct4 protein = Oct4 protein expression by Western Blot in P19 cells; type: cell-based, mouse; conditions: 5 μg/mL, 24 h, DMSO control, FIG. 3
# Protocol: The effect of ethyl p-methoxycinnamate on Oct4 protein expression was assayed using a Western Blot method. Mouse teratoma cells P19 were inoculated in a 6-well plate. After 24 h, ethyl p-methoxycinnamate with a final concentration of 5 μg/mL was added to continue to act for another 24 h, and the control group was treated with DMSO. After the cells were washed with PBS three times, the cells were scraped with a scraper, transferred to an EP tube, and centrifuged at 4000 rpm for 5 min. The supernatant was discarded. 90 μL of lysis solution (50 mM Tris-HCl pH 7.5, 150 mM NaCl, 1 mM NaF, 0.5% NP-40, 2 μg/mL Aprotinin, and 1 mM PMSF) was added to each tube of precipitate, and the EP tube was treated on ice for 30 min and vortexed once every 5 min, so that the cells were completely lysed. After centrifugation at 12000 rpm for 10 min, the supernatant was transferred to a new EP tube, 1/3 volume of 4× protein loading buffer was added, mixed well, and boiled for 10 min, and after instantaneous centrifugation, the mixture was subjected to electrophoresis or placed at −80° C. to be frozen for standby use.
# A transfer membrane buffer was prepared and precooled at 4° C. A PVDF membrane was soaked in methanol for 40 s, then taken out and soaked in the transfer membrane buffer for standby use. […]
smiles,measurement,setting,value
CCOC(=O)C=Cc1ccc(OC)cc1 [ethyl p-methoxycinnamate],effect on the activity of Oct4 promoter (relative luciferase activity),Oct4 promoter,reached a statistically significant difference (*p<0.05)
same,effect on the expression of Oct4 protein,Oct4 protein,can promote the expression of Oct4 protein
